Measurements reported in the SangsterLogP compilation.

Assay: method code SF, from DOI: 10.1016/0045-6535(88)90210-x

SMILES	logP
Nc1ccc([N+](=O)[O-])cc1[N+](=O)[O-]	1.9
OCC(Br)CBr (stereo not drawn)	0.9
NC(=O)Nc1cccc(O)c1	0.36
Cc1ccc(N)c(C)c1	2.13
OCCCl	0.03
Cc1ccc(O)c(N)c1	1.11
Oc1cc(Cl)c(Cl)c(Cl)c1Cl	4.37
CC(O)CO (stereo not drawn)	-0.99
COc1cc(OC)c(Cl)cc1N	1.45
Cc1ccc(N)cc1Cl	2.4
CCc1ccccc1N	2.04
CC(C)(C)c1cc(O)cc(C(C)(C)C)c1	4.64
Oc1c(I)cc(I)cc1I	4.5
